Test results taken from ChEMBL document CHEMBL1201862, “PubChem BioAssay data set” (2004).
The source made the active and inactive calls.

What was measured:
Cytochrome P450 3A4 = Cytochrome P450 3A4 (Homo sapiens, UniProt P08684);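 note: CYP3A4 tested as one member of a cytochrome P450 panel screen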
[1] = NIH3T3 cell viability loss – ATP luminescence, mouse fibroblasts, counter-screen, dose response (AID 2010); format: functional, cell-based;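 note: cells exposed to compound for about 90 hours before reading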
[2] = Trypanosoma cruzi growth suppression in host cells – NIH3T3 host cells, beta-gal luminescence, confirmation (AID 2044); format: functional, cell-based;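 note: intracellular parasites grown in NIH/3T3 mouse fibroblasts as host cells; luminescent beta-galactosidase reporter signal from transgenic T. cruzi replicating inside host cells; inhibitors lower the luminescence signal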
Cytochrome P450 2C19 = Cytochrome P450 2C19 (Homo sapiens, UniProt P33261); assay: Cytochrome panel assay with activity outcomes. Panel member name: p450-cyp2c19 Compounds with AC50 equal or less than 10 uM are considered active; format: functional
Protein RecA = molecular target: T1, Protein RecA (Mycobacterium tuberculosis, UniProt P9WHJ3); assay: Fluorescence Cell-Free Homogeneous Dose Retest to Identify Inhibitors of RecA-Intein Splicing Activity. [Related pubchem assays (depositor defined):AID2097, AID2223, AID489010, AID492950]; format: functional
T1 sequence (P9WHJ3 whole entry): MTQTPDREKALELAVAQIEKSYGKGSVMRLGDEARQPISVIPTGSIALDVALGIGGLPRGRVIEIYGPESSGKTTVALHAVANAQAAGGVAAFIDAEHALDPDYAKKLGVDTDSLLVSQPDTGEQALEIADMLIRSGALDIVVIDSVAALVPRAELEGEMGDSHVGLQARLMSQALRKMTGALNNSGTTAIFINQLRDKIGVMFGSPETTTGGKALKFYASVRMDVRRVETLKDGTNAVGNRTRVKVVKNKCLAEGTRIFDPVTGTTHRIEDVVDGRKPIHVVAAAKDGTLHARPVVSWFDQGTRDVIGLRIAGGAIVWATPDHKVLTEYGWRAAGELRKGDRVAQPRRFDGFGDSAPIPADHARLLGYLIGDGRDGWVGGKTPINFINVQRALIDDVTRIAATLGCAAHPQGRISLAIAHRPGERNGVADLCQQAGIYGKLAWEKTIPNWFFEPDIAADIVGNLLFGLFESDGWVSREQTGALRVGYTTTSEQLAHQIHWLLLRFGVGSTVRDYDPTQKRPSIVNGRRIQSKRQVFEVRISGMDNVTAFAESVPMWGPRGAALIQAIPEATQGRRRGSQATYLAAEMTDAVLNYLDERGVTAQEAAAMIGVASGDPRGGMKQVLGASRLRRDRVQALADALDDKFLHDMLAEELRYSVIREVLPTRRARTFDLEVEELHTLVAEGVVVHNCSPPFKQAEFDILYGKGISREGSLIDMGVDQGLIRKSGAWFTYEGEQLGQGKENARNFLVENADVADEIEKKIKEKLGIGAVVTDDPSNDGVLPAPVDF

[3] = molecular target: T2, Replicative DNA helicase DnaB (Mycobacterium tuberculosis, UniProt P9WMR3); assay: DnaB intein splicing inhibitors, dose response, biochemical, cell-free fluorescence (AID 449749); format: functional
T2 sequence (P9WMR3 whole entry): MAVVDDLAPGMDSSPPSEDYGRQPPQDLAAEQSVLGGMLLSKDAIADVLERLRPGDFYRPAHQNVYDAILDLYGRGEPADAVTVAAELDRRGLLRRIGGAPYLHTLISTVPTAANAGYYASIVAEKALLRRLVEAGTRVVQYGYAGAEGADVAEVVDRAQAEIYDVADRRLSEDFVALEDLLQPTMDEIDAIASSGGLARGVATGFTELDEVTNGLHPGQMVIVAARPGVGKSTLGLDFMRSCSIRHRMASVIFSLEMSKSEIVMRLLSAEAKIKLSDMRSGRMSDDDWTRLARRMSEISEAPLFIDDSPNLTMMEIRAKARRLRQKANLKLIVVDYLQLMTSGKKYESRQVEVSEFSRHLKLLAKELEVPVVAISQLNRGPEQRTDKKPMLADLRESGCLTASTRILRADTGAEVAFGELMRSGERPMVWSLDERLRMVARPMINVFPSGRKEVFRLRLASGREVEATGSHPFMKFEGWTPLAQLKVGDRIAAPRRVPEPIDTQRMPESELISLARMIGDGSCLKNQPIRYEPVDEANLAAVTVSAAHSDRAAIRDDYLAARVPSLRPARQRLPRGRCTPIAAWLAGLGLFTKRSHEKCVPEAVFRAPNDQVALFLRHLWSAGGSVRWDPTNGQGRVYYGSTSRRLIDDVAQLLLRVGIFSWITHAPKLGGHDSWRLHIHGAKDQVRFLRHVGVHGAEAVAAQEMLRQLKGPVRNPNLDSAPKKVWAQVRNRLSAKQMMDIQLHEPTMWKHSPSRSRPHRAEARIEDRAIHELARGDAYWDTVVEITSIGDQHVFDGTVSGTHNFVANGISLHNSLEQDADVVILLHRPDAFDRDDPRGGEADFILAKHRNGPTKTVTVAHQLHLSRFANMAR

Streptococcus = assay: GAS UMAA2166 growth inhibition – luminescence, BacTiterGlo, counter-screen for streptokinase expression inhibitor project, dose response (AID 1915); format: functional, organism-based;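 note: potency for reduction of bacterial viability or growth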
[4] = system: Streptococcus sp. 'group A'; assay: Streptococcus pyogenes SK(-)GAS viability under kanamycin – luminescence, BacTiterGlo, confirmation, counter-screen for streptokinase expression inhibitor project, dose response (AID 1900); format: functional, organism-based

Sequence of Cytochrome P450 3A4 (P08684 whole entry): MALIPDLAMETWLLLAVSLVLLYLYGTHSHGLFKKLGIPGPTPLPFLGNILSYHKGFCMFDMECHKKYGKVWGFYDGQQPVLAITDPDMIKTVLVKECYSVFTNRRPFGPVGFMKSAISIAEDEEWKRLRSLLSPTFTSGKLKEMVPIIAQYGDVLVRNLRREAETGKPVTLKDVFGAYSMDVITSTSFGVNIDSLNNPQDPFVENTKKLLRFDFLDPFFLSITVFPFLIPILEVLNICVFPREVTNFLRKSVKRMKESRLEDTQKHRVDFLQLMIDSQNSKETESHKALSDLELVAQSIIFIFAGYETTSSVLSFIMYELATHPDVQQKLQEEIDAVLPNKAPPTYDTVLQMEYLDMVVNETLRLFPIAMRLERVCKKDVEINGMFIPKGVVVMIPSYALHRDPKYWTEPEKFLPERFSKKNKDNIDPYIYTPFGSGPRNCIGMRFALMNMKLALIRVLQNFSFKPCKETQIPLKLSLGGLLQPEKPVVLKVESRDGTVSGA
Sequence of Cytochrome P450 2C19 (P33261 whole entry): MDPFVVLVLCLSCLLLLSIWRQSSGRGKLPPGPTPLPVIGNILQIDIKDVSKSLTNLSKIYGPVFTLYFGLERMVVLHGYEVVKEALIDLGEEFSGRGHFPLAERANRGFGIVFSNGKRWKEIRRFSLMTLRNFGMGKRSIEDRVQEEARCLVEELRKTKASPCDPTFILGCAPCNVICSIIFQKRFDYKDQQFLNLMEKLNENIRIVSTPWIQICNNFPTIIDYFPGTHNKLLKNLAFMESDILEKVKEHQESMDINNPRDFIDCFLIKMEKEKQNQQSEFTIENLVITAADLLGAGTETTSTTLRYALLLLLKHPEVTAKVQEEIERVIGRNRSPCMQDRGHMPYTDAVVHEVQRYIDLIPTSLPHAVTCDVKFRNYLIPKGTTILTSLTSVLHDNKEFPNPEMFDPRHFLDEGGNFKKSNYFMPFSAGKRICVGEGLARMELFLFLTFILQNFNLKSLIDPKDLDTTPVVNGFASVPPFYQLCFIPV

COc1cc(/C=C(/NC(=O)c2ccccc2Cl)C(=O)O)cc(OC)c1OC
AC50 (Cytochrome P450 3A4): 14.1 µM (inconclusive)

CC(C)(C)c1ccc(-c2nc3c(C#N)c(-c4ccc5c(c4)OCO5)ccn3n2)cc1
EC50 [1]: > 60 µM (not active)
EC50 [2]: 1.46 µM (active)

CC1=C(C(=O)OCc2ccccc2)C(c2ccc(Cl)cc2)NC(=O)N1CCCCCC(=O)O (stereo not drawn)
AC50 (Cytochrome P450 3A4): 10 µM (inconclusive)
AC50 (Cytochrome P450 2C19; read-out: AC50): 39.8 µM (inconclusive)

CCOc1cc(/C=N/n2cnnc2)c(Br)cc1O
AC50 (Cytochrome P450 3A4): 14.1 µM (inconclusive)

COc1cc(CNCCc2ccccc2)ccc1OCC(=O)NC(C)(C)C
AC50 (Cytochrome P450 2C19; read-out: AC50): 28.2 µM (inconclusive)

CCOC(=O)C(C)Sc1ncc(OC)c(Sc2ccc(Cl)cc2)n1 (stereo not drawn)
AC50 (Cytochrome P450 3A4): 20 µM (inconclusive)

O=C(O)CN1CCN(Cc2ccccc2Cl)C1=O
AC50 (Cytochrome P450 3A4): 28.2 µM (inconclusive)

O=C(Oc1cccc(OC(=O)c2ccco2)c1)c1ccco1
EC50 (Protein RecA): 19.8 µM (active)
AC50 [3]: 2.88 µM (active)

O=C(Nc1cccc(F)c1)N1CC[C@@]2(CCCN(C(=O)c3cc(C(F)(F)F)cc(C(F)(F)F)c3)C2)C1
AC50 (Cytochrome P450 2C19; read-out: AC50): 25.1 µM (inconclusive)

CN(C)CCn1c(=O)n(Cc2ccccc2)c(=O)c2c3c(sc21)CCCCC3
EC50 [1]: > 60 µM (not active)
EC50 [2]: 0.505 µM (active)

COc1ccc(OC)c(C2C(C#N)=C(N)Oc3c2c(C)nn3-c2cccc(Cl)c2)c1 (stereo not drawn)
EC50 (Protein RecA): 6.94 µM (active)
AC50 [3]: > 380 µM (inactive)

COc1ncc2nc(-c3cc(F)cc(F)c3)c(=O)n(C[C@H]3CCCO3)c2n1
AC50 (Cytochrome P450 3A4): 25.1 µM (inconclusive)
AC50 (Cytochrome P450 2C19; read-out: AC50): 31.6 µM (inconclusive)

Cc1ccc(-c2cn(S(=O)(=O)c3cccc([N+](=O)[O-])c3)nc2N)cc1
EC50 [1]: > 30 µM (not active)
EC50 [2]: 1.03 µM (active)

COC(=O)c1sc(N)c(C(=O)OC)c1Cn1ncc(Cl)c(Cl)c1=O
EC50 (Protein RecA): 0.541 µM (active)
AC50 [3]: 2.66 µM (active)

O=C(Nc1cccc(F)c1)N1CCCC2(CCN(C(=O)c3cnccn3)CC2)C1
AC50 (Cytochrome P450 2C19; read-out: AC50): 20 µM (inconclusive)

COc1cc(/C=N/NC(=S)Nc2cccc(Cl)c2C)ccc1OCC(=O)N1CC(C)OC(C)C1 (stereo not drawn)
EC50 (Protein RecA): 4 µM (active)
AC50 [3]: 17.5 µM (active)

CCn1c(S)nnc1-c1ccc2ncccc2c1
AC50 (Cytochrome P450 3A4): 3.98 µM (inconclusive)
AC50 (Cytochrome P450 2C19; read-out: AC50): 20 µM (inconclusive)

Cc1ccccc1N1C(=O)c2ccccc2C1Nc1cccnc1 (stereo not drawn)
EC50 (Protein RecA): > 380 µM (inactive)
AC50 [3]: > 380 µM (inactive)

[O-][n+]1c2c(nc3c1-c1ccccc1C3O)CCCC2 (stereo not drawn)
EC50 (Protein RecA): 18.6 µM (active)
AC50 [3]: 19.4 µM (active)

CCCc1n[nH]c2c1C(c1ccc(OC(=O)N3CCOCC3)c(OC)c1)C(C#N)=C(N)O2 (stereo not drawn)
EC50 (Protein RecA): 10 µM (active)
AC50 [3]: 32.2 µM (active)

O=C(Nc1cccc(F)c1)Nc1ccccn1
AC50 (Cytochrome P450 2C19; read-out: AC50): 17.8 µM (inconclusive)

Cc1ccccc1-c1nc(-c2ccc(NC(=O)c3cccs3)cc2)no1
AC50 (Cytochrome P450 3A4): 39.8 µM (inconclusive)

Cc1cc(S(=O)(=O)Nc2ccc(C(=O)NCC(c3ccco3)N3CCCC3)cc2)ccc1F (stereo not drawn)
EC50 [1]: > 60 µM (not active)
EC50 [2]: 0.578 µM (active)

CN1CCN(CCOc2ccc(Cc3ccccc3)cc2)CC1
EC50 [1]: > 60 µM (not active)
EC50 [2]: 0.378 µM (active)

Brc1ccc(-c2ccc(/C=N/Nc3nc4ccccc4[nH]3)o2)cc1
EC50 [1]: > 60 µM (not active)
EC50 [2]: 1.03 µM (active)

CC(C)Oc1c(Br)cc(Br)cc1/C=N/NC(N)=S
EC50 [1]: > 30 µM (not active)
EC50 [2]: 1.35 µM (active)

CCN1CCCC1Cn1cnc2c3cc(C)ccc3nc-2c1O (stereo not drawn)
AC50 (Cytochrome P450 3A4): 22.4 µM (inconclusive)

O=C(Nc1ccccc1)N1CC[C@@]2(CCCN(C(=O)c3cnccn3)C2)C1
AC50 (Cytochrome P450 3A4): 15.8 µM (inconclusive)

Cn1c(=O)c(-c2ccc(Cl)cc2)nc2cnc(N3CCNCC3)nc21
AC50 (Cytochrome P450 3A4): 20 µM (inconclusive)

O=C(Oc1ccc(-n2cnnn2)cc1)c1ccco1
EC50 (Protein RecA): 12.7 µM (active)
AC50 [3]: 15.3 µM (active)

CCCCn1c(-c2cccc3ccccc23)nc2cc3nc(O)c(C(C)C)nc3cc21
EC50 [1]: > 60 µM (not active)
EC50 [2]: 1.08 µM (active)

Cc1ccc(C)n1N1C(=O)/C(=C\c2ccc(Cl)cc2)SC1=S
AC50 (Cytochrome P450 3A4): 15.8 µM (inconclusive)

COc1cc(Cl)cc(/C=C/c2ccc3cccc(O)c3n2)c1OC
EC50 (Streptococcus): 1.85 µM (active)
EC50 [4]: 0.851 µM (active)

COc1ccc2ccccc2c1CNC(C)CCc1ccccc1 (stereo not drawn)
EC50 [1]: > 60 µM (not active)
EC50 [2]: 2.94 µM (active)

CC(=O)NS(=O)(=O)c1ccc(NC(=S)NC(=O)C(C)(C)C)cc1
AC50 (Cytochrome P450 2C19): inconclusive

CCOC(=O)c1c(N=C(S)N2CCN(C)CC2)sc(C)c1-c1ccccc1
EC50 (Streptococcus): > 150 µM (not active)
EC50 [1]: > 30 µM (not active)
EC50 [2]: 0.467 µM (active)
EC50 [4]: 6.75 µM (active)

Cc1ccc(/C=C/c2ccc(=O)n(Cc3ccc(Cl)cc3Cl)n2)cc1
AC50 (Cytochrome P450 2C19; read-out: AC50): 4.47 µM (inconclusive)

COc1ccc(C(=O)N2CCC3(CCCN(C(=O)Nc4cccc(F)c4)C3)CC2)cc1
AC50 (Cytochrome P450 2C19; read-out: AC50): 39.8 µM (inconclusive)

COc1ccc(-n2cc(CN(C)C(C)c3ccncn3)c(-c3cccc(F)c3)n2)cc1 (stereo not drawn)
EC50 [1]: > 60 µM (not active)
EC50 [2]: 2.99 µM (active)

CSc1nc(C)c2c(n1)N(c1ccc(C(F)(F)F)cc1)CC2
AC50 (Cytochrome P450 2C19; read-out: AC50): 11.2 µM (inconclusive)

COc1ccccc1CN1CC[C@@]2(CCCN(S(C)(=O)=O)C2)C1
AC50 (Cytochrome P450 3A4): 20 µM (inconclusive)

Cc1ccc(C2C(C#N)=C(N)Oc3[nH]c(-c4ccccc4)nc32)o1 (stereo not drawn)
EC50 (Protein RecA): 5.11 µM (active)
AC50 [3]: 21.5 µM (active)

Cc1cc(C)c2nc(N(CCCN(C)C)C(=O)c3ccc(S(=O)(=O)N4CC(C)OC(C)C4)cc3)sc2c1 (stereo not drawn)
EC50 [1]: > 30 µM (not active)
EC50 [2]: 0.297 µM (active)

C/C(=N\NC(N)=S)C1=CCC2C3CC[C@H]4CC(O)CC[C@]4(C)C3CC[C@]12C (stereo partly drawn)
EC50 [1]: 9.97 µM (active)
EC50 [2]: 0.159 µM (active)

COc1cccc(Cn2c(=O)c(C)nc3cnc(N4CCN(C)CC4)nc32)c1
AC50 (Cytochrome P450 2C19; read-out: AC50): 39.8 µM (inconclusive)
